In publication PMC11217349, “Development of Nurr1 agonists from amodiaquine by scaffold hopping and fragment growing” (Communications Chemistry, 2024):
Where “and” joins values, the source holds several entries; their conditions need not be identical. Identical values can stand only once.

Tests used:
[1] = Microsomal stability; assay type: in vitro ADME, rat; conditions: for AUC x10^5 (LC-MS peak area of 36 and its demethylated metabolites): incubation of 36 with rat liver microsomes, listed as 36-N(CH3)2
Description: To determine microsomal stability, test compounds (10 μM) were incubated in 100 mM potassium phosphate buffer at pH 7.4 (total volume of 100 µL) containing 0.5 mg/mL male rat liver microsomes (Sprague-Dawley, no. M9066, Merck KGaA, Darmstadt) and 1 mM NADPH for 0, 15, 30, or 60 min. At the end of the incubation time, microsomal activity was terminated by the addition of 500 µL MeCN and subsequent centrifugation at 1700 g for 5 min. A reaction mixture containing heat-inactivated microsomes (95 °C, 10 min) was prepared as a control for each compound. 5 µL supernatant of each sample was analyzed and the remaining concentrations of the respective test compounds at each time point were determined by LC-MS/MS on an API-3200-QTrap (Sciex) with an Agilent Technologies 1100 series setup including a binary pump (G1311A), a degasser (G1322A), and a Shimadzu SIL 20 A HT autosampler under the control of Analyst 1.6 (Sciex). A XBridge BEH C18 (3.5 µm, 150 mm×3 mm, Waters, protected with a 0.5 µm frit) stationary phase was used in combination with a gradient method starting with 0.1% formic acid in water (A) and MeCN (B) as mobile phase (A:B = 80:20) for 6 min going to A: B = 50:50 after 8 min. 5 µL of supernatant diluted in mobile phase starting conditions was loaded onto the column, separated at a flow rate of 400 µL/min, and detected and quantified per Area of MRM (multiple reaction monitoring) with the following transitions: m/z 381.797/145.000 (34); m/z 395.125/158.200 (36); m/z 409.822/131.000 (41); m/z 407.838/171.100 (42).

[2] = target: T1, THRα (Homo sapiens, UniProt P10827); test: Gal4-hybrid selectivity assay THRα; assay type: cell-based; conditions: 3 µM; reference agonist = 100%
T1 construct: chimeric receptors composed of the Gal4-DBD and the hinge region and LBD; expressed in transfected cells; host or cells: HEK293T
T1 sequence (P10827 128-410 isoform P10827-2 limits assumed): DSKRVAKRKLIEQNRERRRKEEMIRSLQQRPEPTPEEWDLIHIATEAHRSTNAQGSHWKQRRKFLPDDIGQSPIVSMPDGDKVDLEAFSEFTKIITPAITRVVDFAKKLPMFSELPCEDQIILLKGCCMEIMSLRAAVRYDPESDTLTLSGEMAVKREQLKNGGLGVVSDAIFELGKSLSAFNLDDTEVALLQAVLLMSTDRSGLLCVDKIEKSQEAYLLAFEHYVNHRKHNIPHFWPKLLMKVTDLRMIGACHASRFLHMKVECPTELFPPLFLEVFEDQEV
Description: Nurr1 modulation was determined in a Gal4 hybrid reporter gene assay in HEK293T cells (German Collection of Microorganisms and Cell Culture GmbH, DSMZ) using pFR-Luc (Stratagene, La Jolla, CA, USA; reporter), pRL-SV40 (Promega, Madison, WI, USA; internal control) and pFA-CMV-hNurr1-LBD[14], coding for the hinge region and ligand binding domain of the canonical isoform of human Nurr1. […] After 24 h, the medium was changed to Opti-MEM without supplements, and cells were transiently transfected using Lipofectamine LTX reagent (Invitrogen, Carlsbad, CA, USA) according to the manufacturer’s protocol. Five hours after transfection, cells were incubated with the test compounds in Opti-MEM supplemented with penicillin (100 U/mL), streptomycin (100 μg/mL), and 0.1% DMSO for 16 h before luciferase activity was measured using the Dual-Glo Luciferase Assay System (Promega) according to the manufacturer’s protocol on a Tecan Spark luminometer (Tecan Deutschland GmbH, Crailsheim, Germany). Firefly luminescence was divided by Renilla luminescence and multiplied by 1000 resulting in relative light units (RLU) to normalize for transfection efficiency and cell growth. Fold activation was obtained by dividing the mean RLU of the test compound by the mean RLU of the untreated control. All samples were tested in at least three biologically independent experiments in duplicates. […]

SMILES: Cc1nc2c(Cl)cccn2c1NC(=O)c1ccc(-c2ccc(N(C)C)cc2)o1 [Compound 36, N-(8-Chloro-2-methylimidazo[1,2-a]pyridin-3-yl)-5-(4-(dimethylamino)phenyl)furan-2-carboxamide]
- metabolism by rat liver microsomes (route) [1]: almost exclusively degraded by demethylation of the dimethylamino motif
- AUC x10^5 (LC-MS peak area of 36 and its demethylated metabolites) ([1]; time 0 min): 7.35 x10^5 and 8.16 x10^5 and 6.56 x10^5 and 7.96 x10^5
- AUC x10^5 (LC-MS peak area of 36 and its demethylated metabolites) ([1]; time 15 min): 1.47 x10^5 and 1.4 x10^5 and 1.5 x10^5 and 1.61 x10^5
- half-life at 10 µM ([1]; male, Sprague-Dawley, pH 7.4, rat liver microsomes, 10 µM, LCMS): 6.3 ± 0.3 min
- % rel. act. THRα [2]: 0.070% and 0.082% and 0.063%
